Molecules are shown by their SMILES. Several values for one entry are separate records, joined by “and”; a condition that tells them apart may be missing. Equal values may be shown once.

One data set addresses T1, PKA-phosphorylated RyR2 (Homo sapiens, UniProt Q92736).
T1 construct: from tissue
Nature of the data set: FKBP12.6 rebinding assay: FKBP12.6 binding to PKA-phosphorylated RyR2 in cardiac SR. The settings on record: compound 0.5-1000 nM; Michaelis-Menten curve fitting. As to the method:
Samples are centrifuged at 95,000 g for 10 min and the pellets are washed three times in 0.2 ml imidazole buffer. The final pellets are pooled and resuspended in imidazole buffer (final concentration≈10 μg/μl). […] Samples then are centrifuged at 100,000 g for 10 minutes and pellets washed 3 times with imidizol buffer. […] Immunoblots are developed using an anti-FKBP antibody (1:3,000 dilution). […] The intracellular solution contains (in mM): CsCl, 60; CaCl2, 1; EGTA, 11; MgCl2, 1; K2ATP, 5; HEPES, 10; aspartic acid, 50; pH 7.4 (CsOH). Under these conditions, it is expected that the measured current was carried by Ba^2+ primarily through L-type calcium channels which is referred to as ICa,L. Drugs are applied by a local solution changer and reach the cell membrane within 1 s.
The FKBP12.6 rebinding assay described above is used to determine the amount of FKBP12.6 binding to PKA-phosphorylated RyR2 at various concentrations (0.5-1000 nM) of the compounds shown. EC50 values are calculated using Michaelis-Menten curve fitting.
The EC50 values are calculated using Michaelis-Menten curve fitting.

For a further data set, the target named is hERG (Homo sapiens, UniProt Q12809). Nature of the data set: hERG current, PatchXpress 7000A automatic parallel patch clamp in hERG-transfected HEK 293 cells (Example 6). The settings on record: human, HEK 293 cells stably transfected with hERG cDNA. As to the method: (§1) HEK293 cells were transfected with a plasmid containing the hERG cDNA and a neomycin resistance gene. Stable transfectants were selected by culturing the cells in the presence of G418. The selection pressure was maintained by continued culture in the presence of G418. […] Cells for use in electrophysiology were cultured in 35 mm dishes.
(§2) Onset and steady state block of hERG current was measured using a pulse pattern with fixed amplitudes (conditioning prepulse: +20 mV for 2 seconds; test pulse: −50 mV for 2 seconds) repeated at 10 second intervals, from a holding potential of −80 mV. Peak tail current was measured during the 2 second step to −50 mV. A steady state was maintained for at least 30 seconds before applying the test compound or the positive control. Peak tail current was monitored until a new steady state was achieved. Test compound concentrations were applied cumulatively in ascending order without washout between applications.
(§3) Data acquisition and analysis was performed using the suite of pCLAMP (Vre. 8.2) programs (Axon Instruments, Union City, Calif.). Steady state was defined by the limiting constant rate of change with time (linear time dependence). The steady state before and after application of the test or control compounds was used to calculate the percentage of current inhibited at each concentration. […] Nonlinear squares fits were solved with the Solver add-in for Excel 2000 (Microsoft, Redmond, Wash.).
(§4) Multiple compounds of the invention were tested for their effects on hERG currents. The compounds tested were: ARM036-Na, ARM047, ARM048, ARM050, ARM057, ARM064, ARM074, ARM075, ARM076, ARM077, ARM101, ARM102, ARM103, ARM104, ARM106, ARM107 and ARM26. […] Electrophysiological recordings were made using the PatchXpress 7000 A (Molecular Devices) automatic parallel patch clamp system. […] The duration of exposure to each test concentration was 5 minutes.
Background: The hERG channel carries a current that helps repolarise heart muscle cells.

The next data set concerns the target hERG current (Homo sapiens, UniProt Q12809). The description is as above. Conditions: for Individual Data (% Inhibition): single cell. The procedure: as §1, §2, §3, §4
A further data set has as its system skeletal muscle. Conditions: five weeks after left coronary artery ligation; cited from earlier work.
A further data set has as its system RyR2. Conditions: wildtype mice, 0.5 mg/kg/h for 28 days post-myocardial infarction.
[1] abbreviates: Individual Data (% Inhibition), 10 μM, single cell.
Where [2] appears, read: hERG current inhibition at the highest concentration tested, highest concentration tested (10 μM).
Setting [3] is: Individual Data (% Inhibition), single cell.

Chain of hERG (Q12809 whole entry): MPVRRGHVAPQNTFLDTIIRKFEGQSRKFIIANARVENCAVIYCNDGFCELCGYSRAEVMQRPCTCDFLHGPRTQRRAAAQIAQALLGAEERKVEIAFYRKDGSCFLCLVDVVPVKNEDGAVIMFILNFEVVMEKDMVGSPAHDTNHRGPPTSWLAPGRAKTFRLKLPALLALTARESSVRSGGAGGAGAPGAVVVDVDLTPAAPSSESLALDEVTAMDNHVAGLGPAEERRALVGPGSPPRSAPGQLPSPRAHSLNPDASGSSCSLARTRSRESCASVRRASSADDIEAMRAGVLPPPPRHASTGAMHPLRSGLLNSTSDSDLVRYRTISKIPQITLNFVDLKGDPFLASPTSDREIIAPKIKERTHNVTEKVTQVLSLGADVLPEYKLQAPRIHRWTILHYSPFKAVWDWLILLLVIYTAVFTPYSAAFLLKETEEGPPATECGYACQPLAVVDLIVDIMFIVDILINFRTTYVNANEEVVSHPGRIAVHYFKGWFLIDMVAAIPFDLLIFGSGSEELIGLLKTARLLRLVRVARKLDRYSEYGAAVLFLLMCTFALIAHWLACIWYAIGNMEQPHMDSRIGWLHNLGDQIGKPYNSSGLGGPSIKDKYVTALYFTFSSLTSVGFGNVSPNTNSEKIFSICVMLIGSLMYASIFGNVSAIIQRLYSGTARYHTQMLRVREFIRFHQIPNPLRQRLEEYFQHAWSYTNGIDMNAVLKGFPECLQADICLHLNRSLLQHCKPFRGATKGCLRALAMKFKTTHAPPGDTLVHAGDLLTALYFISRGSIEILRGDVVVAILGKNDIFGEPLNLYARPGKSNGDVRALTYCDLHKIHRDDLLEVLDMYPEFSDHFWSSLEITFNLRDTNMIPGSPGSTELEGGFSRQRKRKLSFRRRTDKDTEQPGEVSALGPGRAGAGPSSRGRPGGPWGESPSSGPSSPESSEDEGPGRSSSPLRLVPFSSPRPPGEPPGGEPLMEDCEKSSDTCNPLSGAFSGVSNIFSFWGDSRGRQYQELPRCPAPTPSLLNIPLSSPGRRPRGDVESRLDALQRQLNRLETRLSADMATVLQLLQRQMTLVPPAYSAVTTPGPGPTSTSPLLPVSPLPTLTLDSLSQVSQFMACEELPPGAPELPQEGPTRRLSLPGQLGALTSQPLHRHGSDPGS
Chain of hERG current (Q12809 whole entry): as above

Turning to `COC(=O)C(=O)N1CCSc2ccccc2C1` [S76], the EC50 at PKA-phosphorylated RyR2 is 0.025 µM. In addition, the inhibition at 5 min, 10 µM at hERG (setting [1]) was 10%; at hERG (Mean % hERG Inhibition, 10 μM) it was 11.2%; against hERG (setting [2]), less than 50%. In addition, on hERG (Mean % hERG Inhibition), the inhibition at 5 min, 0.01 µM is 0.4%. In addition, the inhibition at 5 min, 0.1 µM on hERG (Mean % hERG Inhibition) was determined as 2.5%. On hERG (Mean % hERG Inhibition), this molecule yielded an inhibition at 5 min, 1 µM of 3.1%. Besides, the “Individual Data (% Inhibition)” value was 0.0% and 0.7% on hERG current (0.01 μM, listed as ARM076, 0.01 µM); 4.0% and 0.9% on hERG current (0.1 μM, listed as ARM076, 0.1 µM); 2.0% and 4.1% at hERG current (1 μM, listed as ARM076, 1 µM); 12.3% at hERG current (10 μM, listed as ARM076, 10 µM).
Turning to `COc1ccc2c(c1)CN(C(=O)CCN1CCC(Cc3ccccc3)CC1)CCS2.Cl` [JTV-519, 4-[3-(4-benzylpiperidin-1-yl)propionyl]-7-methoxy-2,3,4,5-tetrahydro-1,4-benzothiazepine monohydrochloride], in the data set on FKBP12.6+/− mice (0.5 mg/kg/h for 7 days, osmotic mini-pump), the “resting heart rate or other ECG parameters” value is listed as “no effect”. Also, the “cardiac arrhythmias and sudden cardiac death” value in the data set on FKBP12.6+/− mice (plasma level 1 μM) is recorded as “prevent”. Besides, the skeletal muscle function result in the data set with skeletal muscle is on record as “able to improve skeletal muscle function”. The “PKA phosphorylation of RyR2 at Ser-2808” value in the data set on RyR2 was “reduces”.
Consider `COc1ccc2c(c1)CN(C(=O)N1CCNCC1)CCS2` [S64], for which the EC50 at PKA-phosphorylated RyR2 was found to be 0.044 µM. In addition, the inhibition at 5 min, 0.1 µM against hERG (setting [3]) is 9.9%; against hERG (Mean % hERG Inhibition), 9%. The inhibition at 5 min, 10 µM against hERG (setting [1]) is 32%; on hERG (Mean % hERG Inhibition, 10 μM) it was 30.3%; against hERG (setting [2]), less than 50%. This molecule showed an inhibition at 5 min, 0.01 µM on hERG (Mean % hERG Inhibition) of 0.2%. In addition, the inhibition at 5 min, 1 µM on hERG (Mean % hERG Inhibition) turned out to be 9.6%. In addition, the “Individual Data (% Inhibition)” value is −0.6% and 1.0% at hERG current (0.01 μM, listed as ARM064, 0.01 µM); 8.1% on hERG current (0.1 μM, listed as ARM064, 0.1 µM); 13.2% and 6.0% on hERG current (1 μM, listed as ARM064, 1 µM); 28.5% at hERG current (10 μM, listed as ARM064, 10 µM).
`O=C(N1CCN(Cc2ccc3c(c2)OCO3)CC1)N1CCSc2ccccc2C1` [S101] showed an EC50 on PKA-phosphorylated RyR2 of 0.105 µM. For the same molecule, the inhibition at 5 min, 0.01 µM was 4.3% at hERG (setting [3]) and 3.4% against hERG (Mean % hERG Inhibition). Moreover, the inhibition at 5 min, 0.1 µM was 5.1% at hERG (setting [3]) and 6.4% against hERG (Mean % hERG Inhibition). Further, the values for the inhibition at 5 min, 1 µM on hERG (setting [3]) and against hERG (Mean % hERG Inhibition) were 18.9% and 23%, respectively. Also, the inhibition at 5 min, 10 µM on hERG (setting [1]) is 66.7%; against hERG (Mean % hERG Inhibition, 10 μM) it was 65.8%; against hERG (setting [2]), less than 50%. The same molecule returned an IC50 against hERG current of 4.41 µM. For the same molecule, the “Individual Data (% Inhibition)” value at hERG current (0.01 μM, listed as ARM101, 0.01 µM) is recorded as 2.5%; at hERG current (0.1 μM, listed as ARM101, 0.1 µM) it was 7.6%; on hERG current (1 μM, listed as ARM101, 1 µM), 27.0%; at hERG current (10 μM, listed as ARM101, 10 µM), 64.9%.
On to `CCN(CC)C(=O)N1CCSc2ccc(OC)cc2C1` [S48], for which the EC50 at PKA-phosphorylated RyR2 worked out at 0.1 µM. In addition, the results for the inhibition at 5 min, 0.1 µM against hERG (setting [3]) and on hERG (Mean % hERG Inhibition) were 4.2% and 3.6%, respectively. For the same molecule, the inhibition at 5 min, 1 µM against hERG (setting [3]) is 4.7%; on hERG (Mean % hERG Inhibition), 4.1%. Further, the inhibition at 5 min, 10 µM against hERG (setting [1]) is 15.2%; on hERG (Mean % hERG Inhibition, 10 μM), 14%; at hERG (setting [2]), less than 50%. On hERG (Mean % hERG Inhibition), the inhibition at 5 min, 0.01 µM was 1.3%. The “Individual Data (% Inhibition)” value on hERG current (0.01 μM, listed as ARM048, 0.01 µM) was 0.5% and 2.0%; at hERG current (0.1 μM, listed as ARM048, 0.1 µM) it was 2.9%; at hERG current (1 μM, listed as ARM048, 1 µM), 3.5%; at hERG current (10 μM, listed as ARM048, 10 µM), 12.8%.
`CCN(CC)C(=O)N1CCSc2ccccc2C1` [S75]: the midpoint of the response at PKA-phosphorylated RyR2, the EC50, lay at 0.15 µM. Besides, the results for the inhibition at 5 min, 0.01 µM against hERG (setting [3]) and on hERG (Mean % hERG Inhibition) were 1.7% and 1.4%, respectively. Besides, the inhibition at 5 min, 0.1 µM on hERG (setting [3]) turned out to be 2.6%; against hERG (Mean % hERG Inhibition), 3.7%. The inhibition at 5 min, 1 µM against hERG (setting [3]) came out at 3.7%; at hERG (Mean % hERG Inhibition), 3.9%. Besides, the inhibition at 5 min, 10 µM on hERG (setting [1]) was 14.7%; against hERG (Mean % hERG Inhibition, 10 μM) it was 16%; against hERG (setting [2]), less than 50%. Moreover, the “Individual Data (% Inhibition)” value at hERG current (0.01 μM, listed as ARM075, 0.01 µM) is recorded as 1.1%; on hERG current (0.1 μM, listed as ARM075, 0.1 µM), 4.8%; at hERG current (1 μM, listed as ARM075, 1 µM), 4.1%; at hERG current (10 μM, listed as ARM075, 10 µM) it was 17.2%.

Broadly, the EC50 is the concentration at which the effect is half-maximal. As usually defined, the inhibition is the drop in the measured response relative to a control, in per cent. A low value points to a weak effect. By IC50 is commonly meant the point on the concentration scale where inhibition reaches its midpoint. High values mean lower potency, low ones higher potency.

Source of the values: US8710045B2, “Agents for preventing and treating disorders involving modulation of the ryanodine receptors” (The Trustees of Columbia University in the City of New York, priority 2004, dated 2014).
